Assay results reported in patent US20220338504A1 (priority 2017, published 2022).
Like-named read-outs stand apart in the source and are kept apart here. Marks after values point to notes of the source that are not given here.

What was measured:
C. perfringens [1] = type: in vivo, broilers (male Ross×Ross chicks); settings: Virginiamycin 20 g/ton, formulated yeast 0.5 lb/ton, ground pepper 0.3 lb/ton, combination 0.3 + 0.5 lb/ton
C. perfringens [2] = type: in vivo, broilers (male Ross×Ross chicks); settings: 20 g/ton
[3] = tested on: E. maxima and C. perfringens; type: in vivo, broilers (male Cobb×Cobb chicks); settings: challenged, BMD 50.0 g/ton, encapsulated ground pepper 300 g/ton
[4] = tested on: E. maxima and C. perfringens; type: in vivo, broilers (male Cobb×Cobb chicks)
[5] = tested on: Clostridium perfringens strain #6 (with coccidia / E. maxima); type: in vivo, broilers (male Ross×Ross chicks)
[6] = tested on: E. maxima and C. perfringens; type: in vivo, broilers (male Cobb×Cobb chicks); remark: listed apart in the source
[7] = tested on: E. maxima and C. perfringens; type: in vivo, broilers (male Cobb×Cobb chicks); remark: listed apart in the source
[8] = tested on: E. maxima and C. perfringens; type: in vivo, broilers (male Cobb×Cobb chicks); remark: listed apart in the source
[9] = 0-21 d, challenged, BMD 50.0 g/ton, combination 4.0 lb/ton + 3 × 10^5 cfu/g
[10] = 0-28 d, challenged, BMD 50.0 g/ton, combination 4.0 lb/ton + 3 × 10^5 cfu/g
[11] = 14-21 d, challenged, BMD 50.0 g/ton, combination 4.0 lb/ton + 3 × 10^5 cfu/g
[12] = 14-28 d, challenged, BMD 50.0 g/ton, combination 4.0 lb/ton + 3 × 10^5 cfu/g
[13] = 0-21 d, challenged, BMD 50.0 g/ton, combination 0.30 lb/ton + 0.5 lb/ton + 3 × 10^5 cfu/g
[14] = 0-28 d, challenged, BMD 50.0 g/ton, combination 0.30 lb/ton + 0.5 lb/ton + 3 × 10^5 cfu/g
[15] = 14-21 d, challenged, BMD 50.0 g/ton, combination 0.30 lb/ton + 0.5 lb/ton + 3 × 10^5 cfu/g
[16] = 14-28 d, challenged, BMD 50.0 g/ton, combination 0.30 lb/ton + 0.5 lb/ton + 3 × 10^5 cfu/g
[17] = 0-21 d, challenged, BMD 50.0 g/ton, combination 0.3 lb/ton + 3 × 10^5 cfu/g
[18] = 0-28 d, challenged, BMD 50.0 g/ton, combination 0.3 lb/ton + 3 × 10^5 cfu/g
[19] = 14-21 d, challenged, BMD 50.0 g/ton, combination 0.3 lb/ton + 3 × 10^5 cfu/g
[20] = 14-28 d, challenged, BMD 50.0 g/ton, combination 0.3 lb/ton + 3 × 10^5 cfu/g
[21] = 0-21 d, challenged, BMD 50.0 g/ton, combination 0.5 lb/ton + 3 × 10^5 cfu/g
[22] = 0-28 d, challenged, BMD 50.0 g/ton, combination 0.5 lb/ton + 3 × 10^5 cfu/g
[23] = 14-21 d, challenged, BMD 50.0 g/ton, combination 0.5 lb/ton + 3 × 10^5 cfu/g
[24] = 14-28 d, challenged, BMD 50.0 g/ton, combination 0.5 lb/ton + 3 × 10^5 cfu/g

With Virginiamycin the Body weight gain (C. perfringens [1]; 15 d) was 0.38 kg, the “Feed Conversion” value (C. perfringens [1]; 15 d) was 1.32^xy and the Feed consumption (C. perfringens [1]; 15 d) was 0.44^ab Kg. For the same substance, the Body weight gain (C. perfringens [1]; 35 d) was 1.57^xy Kg, the “Feed Conversion” value (C. perfringens [1]; 35 d) was 1.73 and the Feed consumption (C. perfringens [1]; 35 d) was 2.62 kg. The Body weight gain (C. perfringens [1]; 42 d) was 2.17 kg, the “Feed Conversion” value (C. perfringens [1]; 42 d) was 1.76 and the Feed consumption (C. perfringens [1]; 42 d) was 3.70 kg. For the same substance, the “Necrotic enteritis related mortality, %” value (C. perfringens [1]) was 3.50%, the “Total Mortality %” value (C. perfringens [1]) was 0.50% and the “Total Mortality %” value (C. perfringens [2]) was 5.36%. The Body weight gain (C. perfringens [2]; 15 d) was 0.33 kg, the “Feed Conversion” value (C. perfringens [2]; 15 d) was 1.33^b and the Feed consumption (C. perfringens [2]; 15 d) was 0.39 kg. The Body weight gain (C. perfringens [2]; 35 d) was 1.10^ab Kg, the “Feed Conversion” value (C. perfringens [2]; 35 d) was 1.62^abc and the Feed consumption (C. perfringens [2]; 35 d) was 1.73^x Kg. The Body weight gain (C. perfringens [2]; 42 d) was 2.27 kg, the “Feed Conversion” value (C. perfringens [2]; 42 d) was 1.74^abc and the Feed consumption (C. perfringens [2]; 42 d) was 3.90^xy Kg.

With bacitracin methylene disalycilate [BMD] the Body weight gain ([3]; 0-21 d) was 0.44 kg, the “Feed Conversion” value ([3]; 0-21 d) was 1.79^ab and the Feed consumption ([3]; 0-21 d) was 0.79 kg. For the same substance, the Body weight gain ([3]; 0-28 d) was 0.65 kg, the “Feed Conversion” value ([3]; 0-28 d) was 1.88^b and the Feed consumption ([3]; 0-28 d) was 1.22 kg. The Body weight gain ([3]; 14-21 d) was 0.16^b Kg, the “Feed Conversion” value ([3]; 14-21 d) was 2.56^b and the Feed consumption ([3]; 14-21 d) was 0.41 kg. For the same substance, the Body weight gain ([3]; 14-28 d) was 0.37^ab Kg, the “Feed Conversion” value ([3]; 14-28 d) was 2.58^b and the Feed consumption ([3]; 14-28 d) was 0.95 kg. For the same substance, the “Necrotic enteritis lesion score” value ([3]; DOT 21, 0 to 3 score, 0 normal, 3 most severe) was 1.1^b, the “Necrotic enteritis related mortality, %” value [3] was 28.1^b % and the Body weight gain [4, 9] was 0.57^a Kg. The “Feed Conversion” value [4, 9] was 1.53^c, the Feed consumption [4, 9] was 0.87 kg and the Body weight gain [4, 10] was 0.81^a Kg. The “Feed Conversion” value [4, 10] was 1.60^b, the Feed consumption [4, 10] was 1.30 kg and the Body weight gain [4, 11] was 0.32^ab Kg. For the same substance, the “Feed Conversion” value [4, 11] was 1.72^b, the Feed consumption [4, 11] was 0.55 kg and the Body weight gain [4, 12] was 0.56^a Kg. The “Feed Conversion” value [4, 12] was 1.75^b, the Feed consumption [4, 12] was 0.98^a Kg and the “Necrotic enteritis lesion score” value ([4]; DOT 21, 0 to 3 score, challenged, BMD 50.0 g/ton, combination 4.0 lb/ton + 3 × 10^5 cfu/g) was 0.79^b. For the same substance, the “Necrotic enteritis lesion score compared to the challenged control birds” value ([4]; P<0.05) was “lower”, the “Necrotic enteritis related mortality, %” value ([4]; challenged, BMD 50.0 g/ton, combination 4.0 lb/ton + 3 × 10^5 cfu/g) was 0.0^b % and the “overall FCR compared to the challenged control birds” value ([4]; d 0-28) was “reduced”. For the same substance, the “overall body weight gain compared to the challenged control birds” value ([4]; d 0-28) was “increased”, the “FCR compared to the challenge control birds” value ([4]; d 14-28, P<0.05) was “decreased” and the “body weight gain compared to the challenge control birds” value ([4]; d 14-28, P<0.05) was “increased”. For the same substance, the “controlling C. perfringens disease challenge” value ([4]; in vivo) was “effective”, the “necrotic enteritis mortality compared to the challenged control group” value ([4]; in vivo) was “lower” and the “FCR compared to birds fed with no feed additive” value ([5]; 28 days of age, P<0.05) was “decreased”. The “body weight gain compared to birds fed with no feed additive” value ([5]; 28 days of age, P<0.05) was “increased”, the “Body weight gain compared to the control fed birds” value ([5]; 41 days of age, P<0.05) was “increased” and the “FCR compared to the no feed additive control group” value ([5]; 41 days of age, P<0.05) was “decreased”. The “Necrotic enteritis lesion score compared to the no feed additive control fed birds” value ([5]; in vivo) was “numerically reduced”, the “controlling C. perfringens disease challenge” value ([5]; in vivo) was “effective” and the “necrotic enteritis related mortality compared to the no feed additive control fed birds” value ([5]; in vivo) was “numerically reduced”. The Body weight gain [6, 13] was 0.52^ab Kg, the “Feed Conversion” value [6, 13] was 1.81^a and the Feed consumption [6, 13] was 0.94 kg. The Body weight gain [6, 14] was 0.77 kg, the “Feed Conversion” value [6, 14] was 1.78^b and the Feed consumption [6, 14] was 1.37 kg. For the same substance, the Body weight gain [6, 15] was 0.28^b Kg, the “Feed Conversion” value [6, 15] was 1.77^b and the Feed consumption [6, 15] was 0.49 kg. The Body weight gain [6, 16] was 0.53 kg, the “Feed Conversion” value [6, 16] was 1.73^bc and the Feed consumption [6, 16] was 0.91 kg. For the same substance, the “Necrotic enteritis lesion score” value ([6]; DOT 21, 0 to 3 score, challenged, BMD 50.0 g/ton, combination 0.30 lb/ton + 0.5 lb/ton + 3 × 10^5 cfu/g) was 0.5^b, the “Necrotic enteritis lesion scores compared to the challenged control birds” value ([6]; P<0.05) was “lower” and the “Overall FCR compared to the challenged no feed additive control” value ([6]; P<0.05) was “reduced”. For the same substance, the “necrotic enteritis related mortality compared to the challenged control birds” value ([6]; P<0.05) was “lower”, the “Necrotic enteritis related mortality, %” value ([6]; challenged, BMD 50.0 g/ton, combination 0.30 lb/ton + 0.5 lb/ton + 3 × 10^5 cfu/g) was 2^b % and the “FCR compared to the challenge control birds” value ([6]; d 14-28, P<0.05) was “decreased”. For the same substance, the “Body weight gain compared to the challenged no feed additive control group” value ([6]; in vivo) was “not impacted”, the “controlling C. perfringens disease challenge” value ([6]; in vivo) was “effective” and the Body weight gain [7, 17] was 0.66^a Kg. For the same substance, the “Feed Conversion” value [7, 17] was 1.62^ab, the Feed consumption [7, 17] was 1.07 kg and the Body weight gain [7, 18] was 0.92^ab Kg. For the same substance, the “Feed Conversion” value [7, 18] was 1.67^a, the Feed consumption [7, 18] was 1.54 kg and the Body weight gain [7, 19] was 0.30^b Kg. The “Feed Conversion” value [7, 19] was 1.95^b, the Feed consumption [7, 19] was 0.58 kg and the Body weight gain [7, 20] was 0.56^ab Kg. The “Feed Conversion” value [7, 20] was 1.93^b, the Feed consumption [7, 20] was 1.08 kg and the “Necrotic enteritis lesion score” value ([7]; DOT 21, 0 to 3 score, challenged, BMD 50.0 g/ton, combination 0.3 lb/ton + 3 × 10^5 cfu/g) was 0.50^b. The “Necrotic enteritis lesion score compared to the challenged control birds” value ([7]; P<0.05) was “lower”, the “Necrotic enteritis related mortality, %” value ([7]; challenged, BMD 50.0 g/ton, combination 0.3 lb/ton + 3 × 10^5 cfu/g) was 0.0% and the “overall body weight gain compared to the challenged control” value ([7]; d 0-28) was “increased”. The “FCR compared to the challenge control birds” value ([7]; d 14-28, P<0.05) was “decreased”, the “body weight gain compared to the challenge control birds” value ([7]; d 14-28, P<0.05) was “increased” and the “controlling C. perfringens disease challenge” value ([7]; in vivo) was “effective”. The Body weight gain [8, 21] was 0.34^a Kg, the “Feed Conversion” value [8, 21] was 2.21^b and the Feed consumption [8, 21] was 0.75 kg. For the same substance, the Body weight gain [8, 22] was 0.57 kg, the “Feed Conversion” value [8, 22] was 2.08^b and the Feed consumption [8, 22] was 1.19 kg. For the same substance, the Body weight gain [8, 23] was 0.15^bc Kg, the “Feed Conversion” value [8, 23] was 2.30^b and the Feed consumption [8, 23] was 0.34 kg. For the same substance, the Body weight gain [8, 24] was 0.38^ab Kg, the “Feed Conversion” value [8, 24] was 2.05^b and the Feed consumption [8, 24] was 0.78 kg. For the same substance, the “Necrotic enteritis lesion score” value ([8]; DOT 21, 0 to 3 score, challenged, BMD 50.0 g/ton, combination 0.5 lb/ton + 3 × 10^5 cfu/g) was 0.3^c, the “Necrotic enteritis lesion score compared to the challenged control birds” value ([8]; P<0.05) was “lower” and the “necrotic enteritis mortality compared to the challenged control group” value ([8]; P<0.05) was “decreased”. The “Necrotic enteritis related mortality, %” value ([8]; challenged, BMD 50.0 g/ton, combination 0.5 lb/ton + 3 × 10^5 cfu/g) was 3^b %, the “overall FCR compared to the challenged control birds” value ([8]; d 0-28, P<0.05) was “decreased” and the “body weight gain compared to the challenge control birds” value ([8]; d 14-28) was “similar”. For the same substance, the “FCR compared to the challenge control birds” value ([8]; d 14-28, P<0.05) was “decreased” and the “controlling C. perfringens disease challenge” value ([8]; in vivo) was “effective”.
